# pIC50: −log10 of the molar value.
# What was measured:
# recombinant CD73 = recombinant CD73 (Homo sapiens (Human), UniProt P21589); assay: Assay 2: Inhibition of the CD73 enzyme in vitro (0.05 nM CD73, 1 hour 37° C., Malachite Green); type: biochemical; conditions: 0.05 nM CD73, 50 μM AMP, 1 hour at 37° C.
# How it was run: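 Soluble recombinant CD73 reactions ran 1 hour at 37° C. Malachite Green was then added, and absorbance at 630 nm was read after 5 min at room temperature. Inorganic phosphate was quantified from a phosphate standard curve.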
# EG7 tumors = assay: Tumor-directed immune response: flow cytometry of excised EG7 tumors; type: in vivo, mouse; conditions: 50 mg/kg orally BID from day one, tumors excised day 14
# Description: EG7 cells were implanted subcutaneously into C57BL/6 mice. Compound 9 (50 mg/kg) or vehicle was orally administered BID starting day one post implant (N=10 per group). Tumors were excised on day 14 and analyzed by flow cytometry. Compound 9 increased the % CD8+ cells of CD45+ cells as shown in FIG. 1A (* indicates p<0.05). EG7 cells were implanted subcutaneously into C57BL/6 mice. Anti-CD8 antibody was dosed i.p. on days −1, 0, 5, and 10. Compound 9 (50 mg/kg) or vehicle was orally dosed BID starting on day 1.
# recombinant human ENTPD2 = recombinant human ENTPD2 (Homo sapiens (Human), UniProt Q9Y5L3); assay: Recombinant human ENTPD2 malachite green assay; type: biochemical
# Description: (§1) Using Compound 9, the activity of cell surface CD39 was assessed using K562 cells expressing human CD39 and Kinase-Glo. Activity of recombinant human ENTPD2 and ENTPD3 was assessed using a malachite green assay. […] Compound 9 was screened in the Eurofins Safety Screen Panel and the Eurofins Express Diversity Kinase Profile Panel. In the Safety Panel, 1/87 targets were inhibited at >50% at 10 μM of Compound 9. The PDE3 enzyme was inhibited at 59%.
# recombinant human ENTPD3 = recombinant human ENTPD3 (Homo sapiens (Human), UniProt O75355); assay: Recombinant human ENTPD3 malachite green assay; type: biochemical
# Description: as §1
# PDE3 enzyme = assay: Eurofins Safety Screen Panel: PDE3; type: biochemical; conditions: 10 μM
# Description: as §1
# [1] = target: Eurofins Express Diversity Kinase Profile Panel (45 targets); assay: Eurofins Express Diversity Kinase Profile Panel; type: biochemical
# Description: as §1
# EG7 cells = assay: Viability of EG7 cells, CellTiter-Glo; type: cell-based, mouse; conditions: 100 μM, 3 days
# Description: (§2) Viability of EG7 and A375 cells treated with 100 μM Compound 9 was measured using CellTiter-Glo after 3 days. Proliferation of human CD8+ T cells was measured by flow cytometry after 4 days of treatment with 100 μM Compound 9 using CellTrace CFSE Cell Proliferation Kit.
# A375 cells = assay: Viability of A375 cells, CellTiter-Glo; type: cell-based, human; conditions: 100 μM, 3 days
# Description: as §2
# Human CD8+ T cells = assay: Proliferation of human CD8+ T cells, CellTrace CFSE flow cytometry; type: cell-based; conditions: 100 μM, 4 days
# Description: as §2
# mouse plasma CD73 = mouse plasma CD73 (Mus musculus (Mouse), UniProt Q61503); assay: Oral dosing pharmacodynamics: CD73 inhibition in plasma of dosed mice; type: in vivo; conditions: single oral dose 50 mg/kg, plasma 2 hours post dose
# Description: Single dose Compound 9 (50 mg/kg) was administered orally to mice and plasma was collected at indicated time points. Compound 9 levels were measured by LC/MS. Plasma was harvested from mice 2 hours post dose and spiked with ^15N5-AMP and a TNAP inhibitor. ^15N5-ADO levels were measured by LC/MS.
# [2] = target: CD73 activity in cancer patient serum (Homo sapiens (Human), UniProt P21589); assay: CD73 activity in cancer patient serum, LC/MS conversion of 15N5-AMP to 15N5-ADO; type: biochemical; conditions: TNAP inhibitor present
# Description: Serum was procured from Discovery Life Sciences. Serum from head and neck squamous cell carcinoma (HNSCC), ovarian cancer, triple-negative breast cancer and esophageal cancer patients were incubated with a serial dilution of Compound 9 in the presence of a TNAP inhibitor. Conversion of ^15N5-AMP to ^15N5-ADO was measured by LC/MS. FIG. 10A depicts the sub-nanomolar inhibition of HNSCC serum. FIG. 10B depicts the sub-nanomolar inhibition of ovarian cancer serum. FIG. 10C depicts the sub-nanomolar inhibition of TNBC serum. FIG. 10D depicts the sub-nanomolar inhibition of esophageal cancer serum.
# CD73 activity in cancer patient serum, sequence (P21589 27-574): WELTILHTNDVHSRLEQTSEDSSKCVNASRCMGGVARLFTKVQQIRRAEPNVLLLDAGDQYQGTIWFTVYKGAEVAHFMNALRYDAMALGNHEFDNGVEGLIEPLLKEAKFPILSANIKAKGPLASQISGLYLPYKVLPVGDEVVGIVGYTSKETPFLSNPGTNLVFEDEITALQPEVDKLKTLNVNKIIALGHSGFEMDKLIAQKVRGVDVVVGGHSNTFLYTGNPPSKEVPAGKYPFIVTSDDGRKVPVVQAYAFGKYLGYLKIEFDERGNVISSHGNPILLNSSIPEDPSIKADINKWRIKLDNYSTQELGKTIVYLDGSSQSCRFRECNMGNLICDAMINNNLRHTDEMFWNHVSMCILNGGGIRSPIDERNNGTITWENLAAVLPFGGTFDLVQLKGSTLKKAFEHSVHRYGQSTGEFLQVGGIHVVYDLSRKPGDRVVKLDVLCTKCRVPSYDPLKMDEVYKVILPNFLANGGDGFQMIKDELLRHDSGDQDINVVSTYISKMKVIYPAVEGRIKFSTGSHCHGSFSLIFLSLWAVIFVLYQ
# recombinant human ENTPD2, sequence (Q9Y5L3 whole entry): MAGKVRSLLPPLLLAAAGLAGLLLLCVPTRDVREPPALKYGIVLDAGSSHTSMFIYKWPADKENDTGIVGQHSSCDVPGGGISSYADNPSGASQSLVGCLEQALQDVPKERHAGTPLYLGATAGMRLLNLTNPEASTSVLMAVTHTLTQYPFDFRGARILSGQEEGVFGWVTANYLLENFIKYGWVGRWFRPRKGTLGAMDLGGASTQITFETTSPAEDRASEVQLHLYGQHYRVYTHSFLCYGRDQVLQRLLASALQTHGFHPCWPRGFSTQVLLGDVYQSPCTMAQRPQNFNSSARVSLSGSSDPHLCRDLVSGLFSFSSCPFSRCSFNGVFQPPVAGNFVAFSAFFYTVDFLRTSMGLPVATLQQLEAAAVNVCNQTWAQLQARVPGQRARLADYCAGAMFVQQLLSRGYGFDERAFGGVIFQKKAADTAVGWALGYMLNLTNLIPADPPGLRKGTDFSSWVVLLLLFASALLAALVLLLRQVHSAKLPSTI
# mouse plasma CD73, sequence (Q61503 29-576): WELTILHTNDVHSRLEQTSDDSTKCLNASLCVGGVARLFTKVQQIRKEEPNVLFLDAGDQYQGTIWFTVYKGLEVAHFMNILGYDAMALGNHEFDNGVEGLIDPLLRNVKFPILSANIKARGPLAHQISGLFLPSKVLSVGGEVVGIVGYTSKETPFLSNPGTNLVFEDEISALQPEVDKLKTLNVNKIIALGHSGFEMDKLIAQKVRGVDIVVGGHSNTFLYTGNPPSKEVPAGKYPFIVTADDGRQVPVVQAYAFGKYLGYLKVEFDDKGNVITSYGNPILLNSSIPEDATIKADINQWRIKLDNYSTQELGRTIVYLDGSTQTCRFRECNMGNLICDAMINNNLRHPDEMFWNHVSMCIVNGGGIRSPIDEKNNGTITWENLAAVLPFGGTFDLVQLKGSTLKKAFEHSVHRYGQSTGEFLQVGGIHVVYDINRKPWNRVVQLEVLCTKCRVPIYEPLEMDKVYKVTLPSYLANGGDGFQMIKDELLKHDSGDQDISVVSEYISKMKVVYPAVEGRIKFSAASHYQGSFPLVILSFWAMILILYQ
# recombinant CD73, sequence (P21589 27-547): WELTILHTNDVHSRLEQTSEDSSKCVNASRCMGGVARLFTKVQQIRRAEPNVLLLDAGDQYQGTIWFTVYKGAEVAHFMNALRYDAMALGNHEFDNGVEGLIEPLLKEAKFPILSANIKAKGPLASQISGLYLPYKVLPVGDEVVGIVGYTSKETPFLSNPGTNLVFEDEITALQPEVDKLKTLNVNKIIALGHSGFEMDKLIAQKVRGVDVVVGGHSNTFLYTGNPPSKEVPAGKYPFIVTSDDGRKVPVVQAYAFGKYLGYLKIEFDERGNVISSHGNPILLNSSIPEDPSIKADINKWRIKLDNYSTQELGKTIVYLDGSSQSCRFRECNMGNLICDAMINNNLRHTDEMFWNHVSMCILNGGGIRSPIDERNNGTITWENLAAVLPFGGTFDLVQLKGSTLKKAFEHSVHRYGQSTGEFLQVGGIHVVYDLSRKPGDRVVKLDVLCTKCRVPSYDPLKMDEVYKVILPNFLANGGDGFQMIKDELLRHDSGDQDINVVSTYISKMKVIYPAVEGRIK
# recombinant human ENTPD3, sequence (O75355 whole entry): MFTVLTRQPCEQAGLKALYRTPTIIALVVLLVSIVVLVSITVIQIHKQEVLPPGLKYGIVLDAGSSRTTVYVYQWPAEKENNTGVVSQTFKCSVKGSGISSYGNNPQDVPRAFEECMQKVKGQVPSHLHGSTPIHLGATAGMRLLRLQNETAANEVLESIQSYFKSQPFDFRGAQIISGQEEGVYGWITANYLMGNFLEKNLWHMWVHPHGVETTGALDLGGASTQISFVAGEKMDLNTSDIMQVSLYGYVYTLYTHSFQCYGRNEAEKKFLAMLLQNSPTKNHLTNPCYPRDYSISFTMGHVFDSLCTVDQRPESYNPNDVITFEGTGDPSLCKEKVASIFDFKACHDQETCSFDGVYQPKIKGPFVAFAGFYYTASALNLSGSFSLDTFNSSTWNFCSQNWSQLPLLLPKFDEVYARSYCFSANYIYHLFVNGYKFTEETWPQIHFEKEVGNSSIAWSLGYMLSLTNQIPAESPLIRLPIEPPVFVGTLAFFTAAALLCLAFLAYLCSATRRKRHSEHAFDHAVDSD
structure (smiles),measurement,setting,value
"C#C[C@@]1(O)[C@@H](COC(Cc2ccc(N3CCCNC3=O)cc2)(C(=O)O)C(=O)O)O[C@@H](n2cnc3c(N)nc(Cl)nc32)[C@@H]1O [Compound 9, 2-(((2R,3S,4R,5R)-5-(6-amino-2-chloro-9H-purin-9-yl)-3-ethynyl-3,4-dihydroxytetrahydrofuran-2-yl)methoxy)-2-(4-(2-oxotetrahydropyrimidin-1 (2H)-yl)benzyl)malonic acid]",pIC50,recombinant CD73,9.77
same,% CD8+ cells of CD45+ cells,EG7 tumors,increased
same,pIC50,recombinant human ENTPD2,< 5.00
same,pIC50,recombinant human ENTPD3,< 5.00
same,PDE3 enzyme inhibition,PDE3 enzyme,59%
same,Kinase Panel targets inhibited at >50%,[1],none of the 45 targets
same,% cell survival of EG7 cells,EG7 cells,comparable % cell survival
same,% cell survival of A375 cells,A375 cells,comparable % cell survival
same,% divided cells of human CD8+ T cells,Human CD8+ T cells,comparable % divided cells
same,inhibition at 50 mg/kg,mouse plasma CD73,92%
same,inhibition of CD73 activity in esophageal cancer serum,[2]; esophageal cancer serum,sub-nanomolar
same,inhibition of CD73 activity in HNSCC serum,[2]; head and neck squamous cell carcinoma serum,sub-nanomolar
same,inhibition of CD73 activity in ovarian cancer serum,[2]; ovarian cancer serum,sub-nanomolar
same,inhibition of CD73 activity in TNBC serum,[2]; triple-negative breast cancer serum,sub-nanomolar

# Reference: patent publication US11078228B2, “Ectonucleotidase inhibitors and methods of use thereof” (Calithera Biosciences, Inc., priority 2018, dated 2021)
